The source of these data is patent US20140127228A1 (INDIANA UNIVERSITY SCHOOL OF MEDICINE, priority 2012, published 2014).

Test [1] has as its system 1205Lu melanoma cells. The experiment in a line: melanoma bone metastasis in nude mice inoculated with 1205Lu melanoma cells. The test is classed as in vivo, mouse. The text has this: Halofuginone (Hfg) is a synthetic derivative of the plant alkaloid febrifugine, a traditional Chinese herbal medicine. Hfg increases expression of Smad7, an intracellular inhibitor of TGF-beta signaling. […] Hfg has been widely used as a veterinary agent with an excellent safety profile.
(§1) TGFbeta derived from bone fuels melanoma bone metastasis by inducing tumor secretion of pro-metastatic factors that act on bone cells to change the skeletal microenvironment. […] Hfg is active orally and by intraperitoneal injection, and it has completed Phase I clinical trials in cancer patients. It suppresses the phosphorylation and activation of Smad2 and Smad3 by inducting of Smad7. Overexpression of inhibitory Smad7 has been associated with a reduction on invasive capacity in vitro and anchorage-independent growth, and delays subcutaneous tumor growth in nude mice. The present inventors have shown that Smad7 overexpression decreased melanoma bone metastasis, thus is useful for treating and/or preventing muscle weakness and atrophy as well as other muscle related side effects in cancer patients.

Test [2] concerns 1205Lu melanoma cells. The following applies: mouse, in vivo; cited from earlier work.
The next test has as its system human melanoma cells. The test can be described thus: Hfg treatment of human melanoma cells. The test is classed as cell-based.
From the text: as §1

The conditions of test [3]: models of muscular dystrophy; cited from earlier work.
For test [4], the system named is LuCaP 23.1 human prostate cancer osteoblastic xenograft. The test can be described thus: LuCaP 23.1 osteoblastic prostate cancer xenograft in tibia of nude mice. The test is classed as in vivo, mouse. The source says: (§2) These experiments utilize two murine models of prostate cancer bone metastases induced by PC-3 (osteolytic and cachectic; FIGS. 4A-K) or LuCAP23.1 (osteoblastic and not cachectic; FIGS. 5A-B).
(§3) For all mouse experiments, N=15 for each group of mice for tumors inoculated in the left cardiac ventricle (PC-3) or intratibially (LuCAP23.1) based on power analysis detailed below. Male nude mice are housed in laminar flow isolated hoods with water supplemented with vitamin K and autoclaved mouse chow provided ad libitum. Cells are introduced into mice at 4 wks of age. Animals are anesthetized with ketamine/xylazine and positioned ventral side up.
Four-week old, male nude mice were inoculated into the tibia with LuCaP 23.1 human prostate cancer osteoblastic xenograft (n=14-15/group).

The next test relates to PC-3 bone metastases. The experiment in a line: PC-3 prostate cancer bone metastases in mice. The test is classed as in vivo, mouse. The following applies: 50 mg/kg starting 2 days prior to inoculation.
From the text: as §2, §3
Multiple modalities of bone imaging including X-ray and μCT are used to longitudinally monitor the bone lesions and confirmed by histology and quantitative histomorphometry as previously described (Dunn et al., 2009; Guise et al., 1996b; Yin et al., 1999). Muscle mass are followed serially in vivo using the Piximus II system (Wiren et al., 2011) and microCT (Manske et al., 2011).

The next test relates to RyR1. The experiment in a line: RyR1 oxidation, nitrosylation and calstabin 1 depletion in EDL (immunoprecipitation/immunoblot). It is filed as in vivo, mouse. The settings on record: mice with PC-3 prostate cancer metastatic to bone. The source says: (§4) In embodiment A is shown that body weight is decreased in nude mice inoculated with PC-3 human prostate cancer cells and that osteolytic lesions are present in the tibia and histology of the femur, as shown in X-ray images. In embodiments B and C are shown decreased skeletal muscle cross-sectional area in tumor-bearing mice determined by Micro-CT as described herein. In embodiments D and E are shown decreased body weight (D) and decreased Grip strength (E) in PC-3 tumor bearing mice. […] In embodiment J is shown that RyR1 is oxidized and there is decreased calstabin 1 in the RyR complex from, skeletal muscle (EDL) from mice with metastatic prostate cancer. […] All immunoblots were developed and quantified with the Odyssey system (LI-COR, Inc., Lincoln, Nebr.) using IR labeled anti-mouse and anti-Rabbit IgG (1:10,000 dilution) secondary antibodies. […] Quantification of immunoblots showing the relative nitrotyrosine/SERCA for each group of EDLs tested. *p<0.01 compared to non-cancer controls as analyzed by ANOVA. […]
Quantification of RyR1 skeletal channel nitrosylation, oxidation and phosphorylation by protein kinase A (PKA) are performed as described (Bellinger et al., 2009; Bellinger et al., 2008b).
Quantification of depletion of the channel stabilizing subunit calstabin 1 (FKBP12) from skeletal RyR1 by immunoprecipitation techniques are performed as described (Marx et al., 2000). […]
Background: A western blot detects proteins with antibodies after separation by electrophoresis.

A further test has as its system SERCA. The test can be described thus: SERCA oxidation in EDL muscle lysates (immunoprecipitation/immunoblot). It is filed as in vivo, mouse. The following applies: prostate cancer mice. The text has this: In embodiment A is shown that body weight is decreased in nude mice inoculated with PC-3 human prostate cancer cells and that osteolytic lesions are present in the tibia and histology of the femur, as shown in X-ray images. In embodiments B and C are shown decreased skeletal muscle cross-sectional area in tumor-bearing mice determined by Micro-CT as described herein. In embodiments D and E are shown decreased body weight (D) and decreased Grip strength (E) in PC-3 tumor bearing mice. […] In embodiment J is shown that RyR1 is oxidized and there is decreased calstabin 1 in the RyR complex from, skeletal muscle (EDL) from mice with metastatic prostate cancer. RyR1 was immunoprecipitated from 250 μg of EDL homogenate using an anti-RyR antibody (4 μg 5029 Ab), and the immunoprecipitates were separated on SDS-PAGE gels (6% for RyR, 15% for Calstabin). All immunoblots were developed and quantified with the Odyssey system (LI-COR, Inc., Lincoln, Nebr.) using IR labeled anti-mouse and anti-Rabbit IgG (1:10,000 dilution) secondary antibodies. Immunoblots developed using anti-RyR (clone 34C, 1:5,000), anti-Cys-NO (1:1000, Sigma, St. Louis. MO), anti-DNP (to determine RyR1 oxidation. 1:250), and anticalstabin (1:2500). […] Quantification of immunoblots showing the relative nitrotyrosine/SERCA for each group of EDLs tested. *p<0.01 compared to non-cancer controls as analyzed by ANOVA. […]

The next test relates to mouse mammary carcinomas. The following applies: cited from earlier work.
For test [5], the system named is EDL muscle of mice with PC-3 prostate cancer bone metastases. The experiment in a line: EDL muscle specific force production in mice with PC-3 prostate cancer bone metastases. The test is classed as in vivo, mouse. The following applies: hypogonadal mice with PC-3 prostate cancer metastatic to bone.
From the text: as §4
Extensor digitorum longus (EDL) muscles are dissected from the hind limbs using micro dissection scissors and forceps. […] To quantify the specific force, the absolute force is normalized to the muscle cross-sectional area, calculated as the muscle weight divided by the length and a muscle density constant of […] as previously described (Yamada et al., 2009).

For test [6] the following is noted: patients with prostate cancer bone metastases; cited from earlier work.
Where [7] appears, read: 50 or 150 mg/kg/day po from 12 weeks post tumor inoculation.

Entries after “also recorded” stand apart in the source; their conditions may differ.

As to `O=C(CC1NCCCC1O)Cn1cnc2cc(Br)c(Cl)cc2c1=O` (stereo not shown) [Halofuginone], the “osteolysis assessed by radiography” value in the test on 1205Lu melanoma cells [1] (mice with established bone metastasis, vs placebo) is reported as “significantly less osteolysis”. Moreover, the “melanoma metastasis to the brain” value in the test on 1205Lu melanoma cells [1] (mouse, in vivo) is given as “reduce melanoma metastasis to the brain”. Further, in the test on 1205Lu melanoma cells [1] (preventive protocol, nude mice inoculated with 1205Lu melanoma cells), the bone metastasis result is given as “inhibited bone metastasis”. Also, the “development and progression of bone metastasis caused by melanoma cells” value with 1205Lu melanoma cells [2] is “decreases development and progression of bone metastasis”. In the test with human melanoma cells, the “TGFbeta-induced SMAD-driven transcription” value is given as “inhibited”; the cell apoptosis entry is reported as “increased”; the cell proliferation result is “inhibited”; the “expression of TGFbeta target genes (PTHrP, CTGF, CXCR4, IL11)” value is “reducing expression”. Besides, the “phosphorylation of SMAD proteins in response to TGFbeta” value in the test with human melanoma cells was “inhibited”. Further, the muscle function entry in test [3] was “improve muscle function”.
Take `Fc1ccc(Cl)cc1-c1nc(Nc2ccncc2)c2nccnc2n1` [SD-208]: in [4] (setting [7]), the bone formation result is “does not increase” and the tumor growth result is “does not increase”. Also, in test [4] (mouse, in vivo), the LuCAP23.1 bone metastases result is “not effective”. Moreover, the “PC-3 bone metastases (X-ray, osteolytic lesion area, survival)” value with PC-3 bone metastases is given as “highly effective; also recorded: prevents PC-3 bone metastases”. The “oxidation/nitrosylation/calstabin 1 depletion of skeletal muscle RyR1” value with RyR1 is given as “prevented oxidation/nitrosylation/calstabin 1 depletion from RyR1; also recorded: prevented oxidation of RyR1”. Moreover, in the test with SERCA, the “oxidation of SERCA” value is recorded as “inhibited oxidation of SERCA”. For the same compound, in the test with mouse mammary carcinomas, the “tumor growth in vivo” value is “inhibit”. The “muscle (EDL) specific force production” value in test [5] is on record as “improved muscle specific force production”.
For the compound denosumab: inhibitor of bone resorption, the skeletal morbidity result in [6] is listed as “reduce skeletal morbidity”.
